Here are results for 7 compounds from patent US7381736B2, “Thiazole and thiadiazole inhibitors of tyrosine phosphatases” (Metabasis Therapeutics, Inc., priority 2004, dated 2008).

The subject of series [1] is FAO rat hepatoma cells. Kind of series: Cell based assays (IR phosphorylation assays). Particulars: prodrug vs parent carboxylic-phosphonic acid. The source says: Antibodies and Chemicals. The antibody against phosphorylated insulin receptor (pIR) and the ELISA kit for detection of pIR were from Biosource (Camarillo, Calif.). Rabbit anti-IR/IGF-1R [pYpY1162/1163] phosphospecific antibody recognizes both the insulin receptor (IR) and the insulin-like growth factor-1 receptor (IGF-1R) phosphorylated at the active site tyrosine residues, 1162 and 1163 (1135 and 1136 for IGF-1R) (pIR/pIGF-1R). The Insulin Receptor [pYpY1162/1163] […] HRP-conjugated secondary antibodies were from Cell Signaling Technology (Beverly, Mass.). The ECL detection system was from Amersham (Buckinghamshire, UK), and human insulin was from Invitrogen (Carlsbad, Calif.).
Tissue Culture. FAO rat hepatoma cells were obtained from ECACC (#89042701) and maintained at 37° C. in a 5% CO2 environment in Dulbecco's modified Eagle's medium with high glucose (DMEM-high glucose) (4500 mg/liter) supplemented with 10% FBS and 50 units/ml penicillin, 100 µg/ml streptomycin and 0.292 mg/ml L-glutamine. For assays, cells were seeded in 24-well plates at a density of 2×10^5 cells/well and maintained until they reached confluency (about 3 days).
IR phosphorylation assays. Cells in 24-well plates were serum starved overnight in DMEM-low glucose (1000 mg/liter) without serum. […] The pIR/pIGF-1R signals were scanned (HP scanjet 3570c) and quantified (Scion Image). […]

For the compound `CC(C)(C)C(=O)OCOC(=O)c1ccc(-c2csc(NCc3ccc(C(F)(F)P(=O)(O)OCOC(=O)C(C)(C)C)c(Br)c3)n2)cc1` [4-[2-(3-Bromo-4-{[(2,2-dimethyl-propionyloxymethoxy)-hydroxy-phosphoryl]-difluoro-methyl}-benzylamino)-thiazol-4-yl]-benzoic acid 2,2-dimethyl-propionyloxymethyl ester], the “increase in activity in a cell-based assay as compared to the parent carboxylic-phosphonic acid” value in series [1] was roughly 10 fold.

With `O=C(O)c1cccc(Oc2cccc(-c3nn(Cc4ccc(C(F)(F)P(=O)(O)O)c(Cl)c4)c(=Nc4ccc(Cl)c(Cl)c4)s3)c2)c1` [Example 8, 3-{3-[4-[3-Chloro-4-(difluoro-phosphono-methyl)-benzyl]-5-(3,4-dichloro-phenylimino)-4,5-dihydro-[1,3,4]thiadiazol-2-yl]-phenoxy}-benzoic acid], the melting point (as a rule, the temperature of the solid-liquid transition) lay within 212 to 215 °C.

For the compound `COC(=O)c1cccc(Oc2cccc(-c3nn(Cc4ccc(C(F)(F)P(=O)(O)O)c(Cl)c4)c(=Nc4ccc(Cl)c(Cl)c4)s3)c2)c1` [Example 9, 3-{3-[4-[3-Chloro-4-(difluoro-phosphono-methyl)-benzyl]-5-(3,4-dichloro-phenylimino)-4,5-dihydro-[1,3,4]thiadiazol-2-yl]-phenoxy}-benzoic acid methyl ester], the melting point is 137 to 139 °C.

In the case of `O=C(O)c1cccc(Oc2cccc(-c3nn(Cc4ccc(C(F)(F)P(=O)(O)O)c(F)c4)c(=Nc4ccc(Cl)c(Cl)c4)s3)c2)c1` [Example 10, 3-(3-{5-(3,4-Dichloro-phenylimino)-4-[4-(difluoro-phosphono-methyl)-3-fluoro-benzyl]-4,5-dihydro-[1,3,4]thiadiazol-2-yl}-phenoxy)-benzoic acid], the melting point was in the range of 153 to 156 °C.

In the case of `COC(=O)c1cccc(Oc2cccc(-c3nn(Cc4ccc(C(F)(F)P(=O)(O)O)c(F)c4)c(=Nc4ccc(Cl)c(Cl)c4)s3)c2)c1` [Example 11, 3-(3-{5-(3,4-Dichloro-phenylimino)-4-[4-(difluoro-phosphono-methyl)-3-fluoro-benzyl]-4,5-dihydro-[1,3,4]thiadiazol-2-yl}-phenoxy)-benzoic acid methyl ester], the melting point was 137 to 139 °C.

`O=C(O)c1cccc(Oc2cccc(-c3nnc(N(Cc4ccc(C(F)(F)P(=O)(O)O)c(Cl)c4)c4ccc(Cl)c(Cl)c4)s3)c2)c1` [Example 46, 3-(3-{5-[[3-Chloro-4-(difluoro-phosphono-methyl)-benzyl]-(3,4-dichloro-phenyl)-amino]-[1,3,4]thiadiazol-2-yl}-phenoxy)-benzoic acid] registered a melting point of 178 to 180 °C.

`COC(=O)c1cccc(Oc2cccc(-c3nnc(N(Cc4ccc(C(F)(F)P(=O)(O)O)c(Cl)c4)c4ccc(Cl)c(Cl)c4)s3)c2)c1` [Example 48, 3-(3-{5-[[3-Chloro-4-(difluoro-phosphono-methyl)-benzyl]-(3,4-dichloro-phenyl)-amino]-[1,3,4]thiadiazol-2-yl}-phenoxy)-benzoic acid methyl ester]: the melting point was 73 to 76 °C.
